According to paper PMC10143822, “Structural Adaptation of the Single-Stranded DNA-Binding Protein C-Terminal to DNA Metabolizing Partners Guides Inhibitor Design” (Pharmaceutics, 2023):
Like-named read-outs stand apart in the source and are kept apart here. Where a SMILES comes first, the peptide text is derived from it. [ ]: non-standard residue; d: D form. Phe(3-Cl) = N[C@@H](Cc1cccc(Cl)c1)C(=O)O; Phe(4-Cl) = N[C@@H](Cc1ccc(Cl)cc1)C(=O)O; NMeF = CN[C@@H](Cc1ccccc1)C(=O)O; NMeI = CC[C@H](C)[C@H](NC)C(=O)O; 2Thi = N[C@@H](Cc1cccs1)C(=O)O; NMeD = CN[C@@H](CC(=O)O)C(=O)O

Columns and labels:
ExoI = molecular target: T1, ExoI (Escherichia coli, UniProt P04995); test: biochemical; type: binding, E. coli
T1 construct: His-tag (cleaved yes); host or cells: E. coli BL21 (DE3) pLysS
Method: (§1) Triplicate measurements were performed using a Clariostar Plus Microplate Reader in 384-well plates for all fluorescence anisotropy (FA) experiments. The settings were 25 °C, excitation at 485 nm, emission at 510 nm, settling time of 0.2 s, and 200 flashes per well.
(§2) Competition fluorescence anisotropy experiments were carried out as follows: protein (0.5 μM either ExoI or RecO) was incubated with 50 nM F-wtSSB peptide and 0–500 μM unlabeled wtSSB (or a variant) peptide for 30 min at room temperature. For direct fluorescence anisotropy measurements, 16 µM ExoI and 7.5 µM RecO were used in the first well. After serial dilution, either 50 nM of F-mSSB or F-sSSB was added to the wells and then incubated for 30 min. Buffers used included 20 mM Tris-HCl (pH 8.0), 100 mM NaCl, 1 mM MgCl2, 1 mM 2-mercaptoethanol, 10% (v/v) glycerol, for ExoI and 20 mM Tris-HCl (pH 8.0), 200 mM NaCl, 1 mM 2-mercaptoethanol, 10% (v/v) glycerol, and 0.01% Triton-X 100 for RecO [37].
(§3) Fluorescence anisotropy values were normalized and are shown as bound fractions (BF, %). BF=r−rmin/λ(rmax−r)+r−rmin, I=2∗PG+S, r=S−PG/I, where r: anisotropy, I: total intensity, P: perpendicular intensity, S: parallel intensity, G: an instrument factor set to 1, BF: ligand fraction bound, and λ=λbound/λunbound=1 .
(§4) Competitive fluorescence anisotropy was analyzed in Origin Pro 9.5, and IC50 values were determined using the Logistic Nonlinear fit function and are shown as plots for each mutated position for each protein in Figures S4 and S6. EC50 values from direct fluorescence anisotropy titrations were plotted in Origin 9.5. Values were determined using the Logistics Nonlinear fit function.

RecO = molecular target: T2, RecO (Escherichia coli, UniProt P0A7H3); test: biochemical; type: binding; details: 0.5 μM RecO, 50 nM F-wtSSB tracer
T2 construct: His-tag (TEV site) (N, cleaved yes); made in house; host or cells: E. coli Rosetta cells
Method: as §1, §2, §3, §4

[1] = 0–500 μM unlabeled peptide, 30 min room temperature, 20 mM Tris-HCl pH 8.0, 200 mM NaCl, 10% glycerol, 0.01% Triton-X 100, 25 °C, triplicate, read-out: IC50 on RecO, competitive fluorescence anisotropy

T2 sequence (P0A7H3 whole entry): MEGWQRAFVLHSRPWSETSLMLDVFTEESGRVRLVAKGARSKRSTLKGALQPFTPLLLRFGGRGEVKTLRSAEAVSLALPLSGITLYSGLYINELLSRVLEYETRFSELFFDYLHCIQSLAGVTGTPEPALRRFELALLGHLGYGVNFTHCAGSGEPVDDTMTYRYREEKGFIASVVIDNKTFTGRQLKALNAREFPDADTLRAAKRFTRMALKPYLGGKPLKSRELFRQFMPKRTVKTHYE

SMILES | IC50 (ExoI) [µM] | IC50 (RecO; [1]) [mM] | IC50 (RecO; bound given in mM, read-out: IC50 on RecO, competitive fluorescence anisotropy (no direct inhibitory effect detected)) [mM]
CC[C@@H](C)[C@@H](NC(=O)[C@H](CC(=O)O)NC(=O)[C@H](CC(=O)O)NC(=O)[C@H](CC(=O)O)NC(=O)[C@H](Cc1ccccc1)NC(=O)[C@H](CC(=O)O)NC(C)=O)C(=O)N1CCC[C@H]1C(=O)N[C@@H](Cc1ccccc1)C(=O)O [D-Ile6] (Ac-DFDDD[dI]PF-OH) | 56 ± 18.4 |  | 
CC[C@H](C)[C@H](NC(=O)[C@H](CC(=O)O)NC(=O)[C@H](CC(=O)O)NC(=O)[C@H](CC(=O)O)NC(=O)[C@@H](Cc1ccccc1)NC(=O)[C@H](CC(=O)O)NC(C)=O)C(=O)N1CCC[C@H]1C(=O)N[C@@H](Cc1ccccc1)C(=O)O [D-Phe2] (Ac-D[dF]DDDIPF-OH) | 3.49 ± 2.41 | 0.00275 ± 0.00059 | 
CC[C@H](C)[C@H](NC(=O)[C@H](CC(=O)O)NC(=O)[C@H](CC(=O)O)NC(=O)[C@H](CC(=O)O)NC(=O)[C@H](Cc1ccccc1)NC(=O)[C@H](CC(=O)O)NC(C)=O)C(=O)N1CCC[C@@H]1C(=O)N[C@@H](Cc1ccccc1)C(=O)O [D-Pro7] (Ac-DFDDDI[dP]F-OH) | 61.5 ± 16.2 | 0.0116 ± 0.0109 | 
CC(=O)N[C@@H](CC(=O)O)C(=O)N[C@@H](Cc1ccccc1)C(=O)N[C@@H](CC(=O)O)C(=O)N[C@@H](CC(=O)O)C(N)=O [DFDD] (Ac-DFDD-NH2) | 312 ± 16.7 |  | > 3
CC[C@H](C)[C@H](NC(=O)[C@H](CC(=O)O)NC(=O)[C@H](CC(=O)O)NC(=O)[C@H](CC(=O)O)NC(=O)[C@H](Cc1ccccc1)NC(=O)[C@H](CC(=O)O)N(C)C(C)=O)C(=O)N1CCC[C@H]1C(=O)N[C@@H](Cc1ccccc1)C(=O)O [NM-Asp1] (Ac-[NMeD]FDDDIPF-OH) | 2.17 ± 0.15 | 0.0051 ± 0.00064 | 
CC[C@H](C)[C@H](NC(=O)[C@H](CC(=O)O)NC(=O)[C@H](CC(=O)O)N(C)C(=O)[C@H](CC(=O)O)NC(=O)[C@H](Cc1ccccc1)NC(=O)[C@H](CC(=O)O)NC(C)=O)C(=O)N1CCC[C@H]1C(=O)N[C@@H](Cc1ccccc1)C(=O)O [NM-Asp4] (Ac-DFD[NMeD]DIPF-OH) | 1.27 ± 0.14 | 0.00385 ± 0.00103 | 
CC[C@H](C)[C@H](NC(=O)[C@H](CC(=O)O)N(C)C(=O)[C@H](CC(=O)O)NC(=O)[C@H](CC(=O)O)NC(=O)[C@H](Cc1ccccc1)NC(=O)[C@H](CC(=O)O)NC(C)=O)C(=O)N1CCC[C@H]1C(=O)N[C@@H](Cc1ccccc1)C(=O)O [NM-Asp5] (Ac-DFDD[NMeD]IPF-OH) | 9.3 ± 0.66 | 0.00933 ± 0.0043 | 
CC[C@H](C)[C@@H](C(=O)N1CCC[C@H]1C(=O)N[C@@H](Cc1ccccc1)C(=O)O)N(C)C(=O)[C@H](CC(=O)O)NC(=O)[C@H](CC(=O)O)NC(=O)[C@H](CC(=O)O)NC(=O)[C@H](Cc1ccccc1)NC(=O)[C@H](CC(=O)O)NC(C)=O [NM-Ile6] (Ac-DFDDD[NMeI]PF-OH) | 3.95 ± 0.54 |  | 
CC[C@H](C)[C@H](NC(=O)[C@H](CC(=O)O)NC(=O)[C@H](CC(=O)O)NC(=O)[C@H](CC(=O)O)NC(=O)[C@H](Cc1ccccc1)N(C)C(=O)[C@H](CC(=O)O)NC(C)=O)C(=O)N1CCC[C@H]1C(=O)N[C@@H](Cc1ccccc1)C(=O)O [NM-Phe2] (Ac-D[NMeF]DDDIPF-OH) | 5.37 ± 0.53 | 0.00333 ± 0.00035 | 
CC[C@H](C)[C@H](NC(=O)[C@H](CC(=O)O)NC(=O)[C@H](CC(=O)O)NC(=O)[C@H](CC(=O)O)NC(=O)[C@H](Cc1ccccc1)NC(=O)[C@H](CC(=O)O)NC(C)=O)C(=O)N1CCC[C@H]1C(=O)N(C)[C@@H](Cc1ccccc1)C(=O)O [NM-Phe8] (Ac-DFDDDIP[NMeF]-OH) |  | 0.0647 ± 0.0189 | 
CC(=O)N[C@@H](CC(=O)O)C(=O)N[C@@H](Cc1ccc(Cl)cc1)C(=O)N(C)[C@@H](CC(=O)O)C(=O)N[C@@H](CC(=O)O)C(=O)N[C@@H](CCC(=O)O)C(=O)N[C@@H](CC(C)C)C(=O)N1CCC[C@H]1C(=O)N[C@@H](Cc1cccc(Cl)c1)C(=O)O [R1-sSSB-Ct] (Ac-D[Phe(4-Cl)][NMeD]DELP[Phe(3-Cl)]-OH) |  | 0.00333 | 
CC[C@H](C)[C@H](NC(=O)[C@H](CC(=O)O)NC(=O)[C@H](CC(=O)O)NC(=O)[C@H](CC(=O)O)NC(=O)[C@H](Cc1cccs1)NC(=O)[C@H](CC(=O)O)NC(C)=O)C(=O)N1CCC[C@H]1C(=O)N[C@@H](Cc1ccccc1)C(=O)O [Thi2] (Ac-D[2Thi]DDDIPF-OH) | 4.22 ± 0.81 | 0.00527 ± 0.00028 | 
